The target of one test is human NEU2 (Homo sapiens (Human), UniProt Q9Y3R4). As to the kind of experiment: human NEU2 sialidase inhibition. The settings on record: for IC50: read-out: NEU2 IC50, human NEU2.
Another test addresses human NEU1 (Homo sapiens (Human), UniProt Q99519). Briefly: human NEU1 sialidase inhibition.
The next test concerns the target human NEU3 (Homo sapiens (Human), UniProt Q9UQ49). Briefly: human NEU3 sialidase inhibition.
Another test deals with human NEU4 (Homo sapiens (Human), UniProt Q8WWR8). As to the kind of experiment: human NEU4 sialidase inhibition.
human NEU4, sequence (Q8WWR8 whole entry): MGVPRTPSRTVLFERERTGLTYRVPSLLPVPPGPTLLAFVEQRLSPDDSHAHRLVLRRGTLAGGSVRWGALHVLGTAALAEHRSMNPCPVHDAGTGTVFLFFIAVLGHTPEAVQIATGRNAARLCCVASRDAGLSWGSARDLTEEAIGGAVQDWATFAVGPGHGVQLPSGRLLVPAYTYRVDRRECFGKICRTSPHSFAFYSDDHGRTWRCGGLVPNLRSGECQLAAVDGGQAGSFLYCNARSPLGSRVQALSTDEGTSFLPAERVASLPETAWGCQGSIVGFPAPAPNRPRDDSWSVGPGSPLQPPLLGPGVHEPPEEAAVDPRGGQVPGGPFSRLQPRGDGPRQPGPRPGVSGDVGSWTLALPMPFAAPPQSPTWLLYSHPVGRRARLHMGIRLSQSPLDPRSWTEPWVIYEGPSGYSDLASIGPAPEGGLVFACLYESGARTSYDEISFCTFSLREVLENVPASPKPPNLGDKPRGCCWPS
[1] abbreviates: read-out: NEU1 IC50, human NEU1.
The mark [2] stands for this setting: read-out: NEU3 IC50, human NEU3.
Where [3] appears, read: read-out: NEU4 IC50, human NEU4.

Read-outs that look alike come from different tables or passages of the source. Some results are limits rather than exact numbers.

human NEU2, sequence (Q9Y3R4 whole entry): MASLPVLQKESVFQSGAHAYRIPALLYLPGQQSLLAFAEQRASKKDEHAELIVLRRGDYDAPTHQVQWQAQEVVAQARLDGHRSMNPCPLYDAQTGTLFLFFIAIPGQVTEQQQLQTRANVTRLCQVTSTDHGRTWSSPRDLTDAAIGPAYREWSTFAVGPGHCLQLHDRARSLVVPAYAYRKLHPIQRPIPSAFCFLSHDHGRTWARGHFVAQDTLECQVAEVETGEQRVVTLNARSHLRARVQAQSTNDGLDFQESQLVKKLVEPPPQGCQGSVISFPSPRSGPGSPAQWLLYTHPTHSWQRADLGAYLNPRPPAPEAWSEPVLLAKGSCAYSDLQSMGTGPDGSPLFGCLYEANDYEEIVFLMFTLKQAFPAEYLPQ
human NEU3, sequence (Q9UQ49 whole entry): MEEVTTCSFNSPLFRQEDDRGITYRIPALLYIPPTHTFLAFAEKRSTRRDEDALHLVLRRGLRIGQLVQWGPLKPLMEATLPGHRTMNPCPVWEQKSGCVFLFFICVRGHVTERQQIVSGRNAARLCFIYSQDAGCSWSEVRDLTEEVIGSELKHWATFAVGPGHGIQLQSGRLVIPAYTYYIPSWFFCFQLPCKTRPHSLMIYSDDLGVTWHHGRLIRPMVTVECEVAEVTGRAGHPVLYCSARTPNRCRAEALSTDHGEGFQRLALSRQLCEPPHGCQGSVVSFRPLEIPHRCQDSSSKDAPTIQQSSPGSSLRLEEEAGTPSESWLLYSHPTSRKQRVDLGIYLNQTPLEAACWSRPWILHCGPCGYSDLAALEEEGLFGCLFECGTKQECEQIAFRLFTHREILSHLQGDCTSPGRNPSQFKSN
From the text for human NEU1: (§1) Enzymatic activity may be defined as inhibited if the rate measured by the Michaelis-Menten equation in an in vitro assay using a substrate with a terminal sialic acid is inhibited by at least 50%. More specifically, a human sialidase inhibitor may be a compound that inhibits the rate of at least one human sialidase by at least 50% as measured by the Michaelis-Menten equation in an in vitro assay using the fluorometric substrate 4MU-NANA [2′-(4-Methylumbelliferyl)-α-D-N-acetylneuraminic acid.
(§2) In general, sialidase activity, including human sialidase activity, may be assessed at 37° C. in the presence of buffers ranging in pH from 3.7 to 7.4. […] Bovine serum albumin (BSA) is added to the buffer at a concentration of 100 ug/ml. Sialidase at a final concentration of 300 ng/ml is then added to the buffer. A sialidase inhibitor is then added to the mixture at a series of final concentrations. The reaction mixture is incubated for 30 minutes to allow the inhibitor to bind the sialidase. The fluorometric substrate 4MU-NANA [2′-(4-Methylumbelliferyl)-α-D-N-acetylneuraminic acid sodium salt hydrate is then added at a final concentration of 200 μM. […] The total volume of each reaction mixture is 0.1 ml. The cleavage of 4MU-NANA is then monitored by fluorescence every 20 minutes for 5 hours with excitation light at 360 nm and the fluorescence emission at 460 nm.
(§3) The fluorescence in the absence of sialidases is subtracted from all readings.
From the text for human NEU2: as §1, §2, §3
From the text for human NEU3: as §1, §2, §3
From the text for human NEU4: as §1, §2, §3

The term IC50 denotes the concentration that gives 50% inhibition. As for “2,6-Anhydro-3,5-dideoxy-5-glycolylamido-D-glycero-D-galactonon-2-enonic acid [Compound 39]”, the IC50 at human NEU2 was 34 ± 4 µM.

For the compound `CC(=O)NC[C@H](O)[C@H](O)[C@@H]1OC(C(=O)O)=C[C@H](O)[C@H]1NC(C)=O` [Compound 2], the IC50 is 58 µM at human NEU1 (setting [1]), above 1000 µM on human NEU3 (setting [2]) and 580 µM at human NEU4 (setting [3]).

Take `CC(=O)N[C@H]1[C@H]([C@@H](O)[C@@H](O)CNC(=O)c2ccccc2)OC(C(=O)O)=C[C@@H]1O` [Compound 3]: the figures for the IC50 at human NEU1 (setting [1]), on human NEU3 (setting [2]) and at human NEU4 (setting [3]) were 13 µM, 320 µM and 810 µM, respectively.

With `CC(=O)N[C@H]1[C@H]([C@@H](O)[C@@H](O)CNC(=O)C2CCCC2)OC(C(=O)O)=C[C@@H]1O` [Compound 4], the IC50 was 135 µM at human NEU1 (setting [1]), above 1000 µM at human NEU3 (setting [2]) and above 1000 µM at human NEU4 (setting [3]).

Turning to `CC(=O)N[C@H]1[C@H]([C@@H](O)[C@@H](O)CNC(=O)C2CC2)OC(C(=O)O)=C[C@@H]1O` [Compound 5], the IC50 was 680 µM at human NEU1 (setting [1]), above 1000 µM at human NEU3 (setting [2]) and 825 µM on human NEU4 (setting [3]).

As for `CCCC(=O)NC[C@H](O)[C@H](O)[C@@H]1OC(C(=O)O)=C[C@H](O)[C@H]1NC(C)=O` [Compound 6], the values for the IC50 on human NEU1 (setting [1]) and at human NEU3 (setting [2]) were 32 µM and above 1000 µM, respectively.

Turning to `CC(=O)N[C@H]1[C@H]([C@@H](O)[C@@H](O)CNC(=O)CC(C)C)OC(C(=O)O)=C[C@@H]1O` [Compound 7], the figures for the IC50 at human NEU1 (setting [1]), at human NEU3 (setting [2]) and on human NEU4 (setting [3]) were 565 µM, above 1000 µM and above 1000 µM, respectively.

Turning to `CCCCC(=O)NC[C@H](O)[C@H](O)[C@@H]1OC(C(=O)O)=C[C@H](O)[C@H]1NC(C)=O` [Compound 8], the IC50 at human NEU4 (setting [3]) was above 1000 µM.

The Ki is the equilibrium dissociation constant of an inhibitor or competing ligand from its target. On human NEU2, `CC(=O)N[C@@H]1[C@@H](O)C=C(C(=O)O)C[C@H]1OCC(C)C` [Compound 12] had a Ki of 880 µM.

Regarding `CC(=O)N[C@@H]1[C@@H](O)C=C(C(=O)O)C[C@H]1OCCCO` [Compound 13], affinity at human NEU2 was put at a Ki of 740 µM.

For `CC(=O)N[C@@H]1[C@@H](O)C=C(C(=O)O)C[C@H]1OCC(O)CO` (stereo partly shown) [Compound 14], the Ki at human NEU2 worked out at 1400 µM.

On to `CC(=O)N[C@H]1[C@H]([C@H](O)[C@H](O)Cn2ccnn2)OC(C(=O)O)=C[C@@H]1O` [Compound 15], for which the IC50 at human NEU3 (setting [2]) was determined as 70 ± 20 µM.

Consider `CC(=O)N[C@H]1[C@H]([C@H](O)[C@H](O)Cn2cc(-c3ccccc3)nn2)OC(C(=O)O)=C[C@@H]1O` [Compound 16], for which the IC50 on human NEU3 (setting [2]) amounted to 20 ± 10 µM.

For the compound `CCCCCCc1cn(C[C@@H](O)[C@@H](O)[C@@H]2OC(C(=O)O)=C[C@H](O)[C@H]2NC(C)=O)nn1` [Compound 17], the IC50 at human NEU3 (setting [2]) came out at 23 ± 4 µM.

On to `CCOc1cn(C[C@@H](O)[C@@H](O)[C@@H]2OC(C(=O)O)=C[C@H](O)[C@H]2NC(C)=O)nn1` [Compound 18], for which, on human NEU3 (setting [2]), the IC50 was found to be 300 ± 200 µM.

With `CCOC(OCC)c1cn(C[C@@H](O)[C@@H](O)[C@@H]2OC(C(=O)O)=C[C@H](O)[C@H]2NC(C)=O)nn1` [Compound 19], the IC50 at human NEU3 (setting [2]) came to 130 ± 20 µM.

Turning to `CC(=O)N[C@H]1[C@H]([C@H](O)[C@H](O)Cn2cc(COc3ccccc3)nn2)OC(C(=O)O)=C[C@@H]1O` [Compound 20], the 50% inhibitory concentration (IC50) on human NEU3 (setting [2]) was determined as 45 ± 3 µM.

`CC(=O)N[C@H]1[C@H]([C@H](O)[C@H](O)Cn2cc(CO)nn2)OC(C(=O)O)=C[C@@H]1O` [Compound 21]: the IC50 at human NEU3 (setting [2]) amounted to 300 ± 400 µM.

With `CC(=O)N[C@H]1[C@H]([C@H](O)[C@H](O)Cn2cc(CCO)nn2)OC(C(=O)O)=C[C@@H]1O` [Compound 22], the IC50 on human NEU3 (setting [2]) stood at 400 ± 600 µM.

Consider `CC(=O)N[C@H]1[C@H]([C@H](O)[C@H](O)Cn2cc(CCCO)nn2)OC(C(=O)O)=C[C@@H]1O` [Compound 23], for which, on human NEU3 (setting [2]), the IC50 turned out to be 500 ± 200 µM.

`CC(=O)N[C@H]1[C@H]([C@H](O)[C@H](O)Cn2cc(C(C)(C)O)nn2)OC(C(=O)O)=C[C@@H]1O` [Compound 24]: the concentration for half-maximal inhibition (IC50) at human NEU3 (setting [2]) turned out to be 300 ± 500 µM.

With `O=C(Cn1ccnn1)N[C@H]1[C@H]([C@H](O)[C@H](O)CO)OC(C(=O)O)=C[C@@H]1O` [Compound 25], the affinity at human NEU3 corresponds to a Ki of 21 ± 8 µM.

For the compound `CCC(CC)O[C@@H]1CC(C(=O)O)C=C(n2cc([C@]3(O)CCC4C5CCc6cc(O)ccc6C5CC[C@@]43C)nn2)[C@H]1NC(C)=O` (stereo partly shown) [Compound 29], the IC50 against human NEU3 (NEU3 IC50, human NEU3) came to 350 ± 100 µM; against human NEU4 it was 800 ± 400 µM.

In the case of `CCC(CC)O[C@@H]1CC(C(=O)O)C=C(n2cc(C(C)(C)O)nn2)[C@H]1NC(C)=O` (stereo partly shown) [Compound 30], at human NEU3 (setting [2]), the IC50 is 640 ± 210 µM.

In the case of `CC(=O)N[C@H]1[C@H]([C@H](O)[C@H](O)CN=[N+]=[N-])OC(C(=O)O)=C[C@@H]1O` [Compound 32], at human NEU2, the IC50 stood at 31 ± 6 µM.

Turning to `CC(=O)N[C@@H]1C(N=[N+]=[N-])C=C(C(=O)O)OC1C(O)C(O)CO` (stereo partly shown) [Compound 37], the IC50 against human NEU1 amounted to 360 ± 50 µM; against human NEU3 (NEU3 IC50, human NEU3), 54 ± 5 µM; against human NEU4 it was 1000 ± 60 µM.

For `CC(=O)N[C@@H]1C(N=[N+]=[N-])C=C(C(=O)O)OC1CNOCc1ccccc1` (stereo partly shown) [Compound 41], the IC50 at human NEU3 (NEU3 IC50, human NEU3) is 24 ± 2 µM.

As to `CC(=O)N[C@@H]1C(N=[N+]=[N-])C=C(C(=O)O)OC1CN(Cc1ccccc1)OCc1ccccc1` (stereo partly shown) [Compound 42], the IC50 on human NEU3 (NEU3 IC50, human NEU3) is 24 ± 11 µM; on human NEU4 it was 350 ± 180 µM.

At human NEU3 (NEU3 IC50, human NEU3), `CC(=O)N[C@@H]1C(N=[N+]=[N-])C=C(C(=O)O)OC1CNNc1ccccc1` (stereo partly shown) [Compound 43] displayed an IC50 of 20 ± 8 µM.

`CC(=O)N[C@@H]1C(N)C=C(C(=O)O)OC1CNc1ccccc1` (stereo partly shown) [Compound 44] had an IC50 on human NEU3 (NEU3 IC50, human NEU3) of 540 ± 30 µM.

`CC(=O)N[C@@H]1C(O)C=C(C(=O)O)OC1CNNCc1ccc(-c2ccccc2)cc1` (stereo partly shown) [Compound 47]: the IC50 amounted to 70 ± 20 µM at human NEU3 (NEU3 IC50, human NEU3) and 200 ± 20 µM against human NEU4.

For `CC(=O)N[C@@H]1C(O)C=C(C(=O)O)OC1C(O)C(O)CN=[N+]=[N-]` (stereo partly shown) [Compound 48], the IC50 on human NEU1 was 620 ± 10 µM; on human NEU3 (NEU3 IC50, human NEU3), 19.7 ± 2.3 µM; on human NEU4, 60 ± 20 µM.

Turning to `[N-]=[N+]=NCC(=O)N[C@@H]1C(O)C=C(C(=O)O)OC1C(O)C(O)CO` (stereo partly shown) [Compound 49], the IC50 at human NEU1 was 29 ± 0.5 µM; on human NEU3 (NEU3 IC50, human NEU3) it was 4.7 ± 0.3 µM; at human NEU4 it was 4.5 ± 0.1 µM.

For the compound `O=C(Cn1cc(-c2ccccc2)nn1)N[C@@H]1C(O)C=C(C(=O)O)OC1C(O)C(O)CO` (stereo partly shown) [Compound 50], the IC50 against human NEU4 came out at 250 ± 40 µM.

Turning to `CC(=O)N[C@H]1C([C@@H](O)[C@@H](O)Cn2cc(-c3ccccc3)nn2)OC(C(=O)O)=C[C@@H]1O` (stereo partly shown) [Compound 51], the IC50 on human NEU1 (setting [1]) came to 200 ± 30 µM; at human NEU3 (setting [2]) it was 4.6 ± 0.2 µM; on human NEU4 (setting [3]), 2.3 ± 0.2 µM.

`CCOc1cn(C[C@H](O)[C@H](O)C2OC(C(=O)O)=C[C@H](O)[C@H]2NC(C)=O)nn1` (stereo partly shown) [Compound 52]: the IC50 on human NEU1 (setting [1]) came out at 170 ± 20 µM; at human NEU3 (setting [2]), 90 ± 10 µM; at human NEU4 (setting [3]), 3.6 ± 0.3 µM.

On to `CC(=O)N[C@H]1C([C@@H](O)[C@@H](O)Cn2cc(CO)nn2)OC(C(=O)O)=C[C@@H]1O` (stereo partly shown) [Compound 54], for which the IC50 on human NEU1 (setting [1]) is above 1000 µM; on human NEU3 (setting [2]) it was 80 ± 10 µM.

For `CC(=O)N[C@H]1C([C@@H](O)[C@@H](O)Cn2cc(CCO)nn2)OC(C(=O)O)=C[C@@H]1O` (stereo partly shown) [Compound 55], the values for the IC50 on human NEU1 (setting [1]), on human NEU3 (setting [2]) and on human NEU4 (setting [3]) were above 1000 µM, 38 ± 2 µM and 0.81 ± 0.04 µM, respectively.

For the compound `CC(=O)N[C@H]1C([C@@H](O)[C@@H](O)Cn2cc(CCCO)nn2)OC(C(=O)O)=C[C@@H]1O` (stereo partly shown) [Compound 56], the figures for the IC50 on human NEU1 (setting [1]), on human NEU3 (setting [2]) and at human NEU4 (setting [3]) were 660 ± 20 µM, 39 ± 1 µM and 2.1 ± 0.1 µM, respectively.

With `CC(=O)N[C@H]1C([C@@H](O)[C@@H](O)Cn2cc(C(C)(C)O)nn2)OC(C(=O)O)=C[C@@H]1O` (stereo partly shown) [Compound 57], the IC50 at human NEU1 (setting [1]) was above 1000 µM; at human NEU4 (setting [3]) it was 4 ± 0.3 µM.

The values above are taken from patent publication US20250144172A1, “ANTI-FIBROTIC SIALIDASE INHIBITOR COMPOUNDS AND METHODS OF USE” (The Texas A&M University System, priority 2016, published 2025).
